Consider three molecules from the NIST ThermoML archive (doi:10.1016/j.fluid.2016.05.004).

Numbers after ± are expanded uncertainties.

For the data set the following is noted: Liquid, Closed cell (Static) method.

What is called vapor or sublimation pressure is the equilibrium pressure above the liquid or solid. In the case of `O=C=O` [carbon dioxide], the “vapor or sublimation pressure” value (233.19 K) is 1009 ± 12 kPa; the “vapor or sublimation pressure” value (243.22 K) was 1432 ± 12 kPa; the “vapor or sublimation pressure” value (253.21 K) turned out to be 1970 ± 13 kPa; the “vapor or sublimation pressure” value (263.21 K) is 2645 ± 15 kPa; the “vapor or sublimation pressure” value (273.19 K) is listed as 3473 ± 16 kPa.
As to `FC(F)=C(F)C(F)(F)F` [hexafluoropropene], the “vapor or sublimation pressure” value is reported as 64 ± 10 kPa (233.17 K); 102 ± 10 kPa (243.23 K); 157 ± 10 kPa (253.14 K); 233 ± 10 kPa (263.2 K); 334 ± 10 kPa (273.19 K).
As for `FC(F)(F)C1(F)OC1(F)F` (stereo not given) [2,2,3-trifluoro-3-(trifluoromethyl)oxirane], the “vapor or sublimation pressure” value reads like this: (233.17 K) 58 ± 10 kPa; (243.24 K) 95 ± 10 kPa; (253.22 K) 145 ± 10 kPa; (263.24 K) 216 ± 10 kPa; (273.18 K) 310 ± 10 kPa.
